In patent publication US20030138864A1, “Method for identifying an enzyme to design anti-cancer compounds” (priority 2001, published 2003):
Read-outs that look alike come from different tables or passages of the source.

Experiments:
[1] = Growth inhibition (cytotoxicity, WST-1) of granulocyte progenitors expanded ex vivo (CFU-GM); assay type: cell-based, human; details: human, drug exposure time; for IC50 at 24 h: then cultured for 6 days without drugs
Description: (§1) The activation of the compounds is mediated by microsomal dipeptidase. The inhibitory activities of the compounds is determined against growth of the cells expressing a low level of microsomal dipeptidase, those expressing a high level of microsomal dipeptidase, and granulocyte progenitors that are expanded ex vivo. The human colon cancer cell line, HCT116 (American Type Culture Collection No. CCL-247), and granulocyte progenitors are used as the cells expressing only a low level of microsomal dipeptidase. A stable transfectant, HCT116/S5, into which the human microsomal dipeptidase cDNA (herafter called MDP) connected to the CMV promoter was transfected, is used as the cells expressing a high level of microsomal dipeptidase. The dipeptidase cDNA (Satoh et al. Biotechnol. Prog. 10 (2), 134-140 (1994)) and other references) and the cloning procedures as mentioned are known in the art. HCT116, HCT116/S5, and granulocyte porogenitors are cultured in the absence and presence of the drugs. […] The IC50 values are determined and compared among HCT116, HCT116/S5, and granulocyte porogenitors. Although time duration of the exposure of the cells to the drugs varies depending on the cells and drugs, it can be 24 hr, 96 or 168 hr.
CD34-positive mononuclear cells derived from the human umbilical cord blood and bone marrow (Veritas Co, Tokyo, Japan, Catalog No.CB009F, ABM019F) were cultured on a confluent monolayer of MS5 (Itoh, K., et al. Reproducible establishment of hematopoietic supportive stromal cells from murine bone marrow. Exp. Hematol. 17, 145-153 (1989)). Mouse stromal cell lines in alpha MEM medium (Life Technologies, Gaithersburg, USA, Catalog No.12571-0063) supplemented with 10% (v/v) horse serum (HS) (Stem Cell Technologies, Vancouver, Canada, Catalog No. 06750), 10% (v/v) fetal bovine serum (FBS) (Stem Cell Technologies, Vancouver, Canada, Catalog No.06450), 50 ng/ml Flt3 ligand (PeproTec EC., London, UK., Catalog No. 300-19), 100 ng/ml SCF (PeproTech EC, London, UK., Catalog No. 300-07), and 50 ng/ml TPO (PeproTech EC, London, England, Catalog No. 300-18) at 37° C. under 5% CO2 in humidified air. Floating hematopoietic cells were collected and stained by monoclonal antibodies against PerCP-anti-CD34 (BD pharMingen, San Diego, USA, Catalog No.340430), PE-anti-CD13 (BD pharMingen, San Diego, USA, Catalog No. 30525X) and FlTC-anti-15(BD pharMingen, SanDiego, USA, Catalog No. PM30525X). Five microlitter of each antibody was added to a […] of cell suspension and incubated at 4° C. for 25 min. After washing with PBS containing 10% (v/v) FCS, the expression of CD antigens were detected by using FACSCalibur (Becton Dickinson, Franklin Lakes, N.J., USA) according to the FACSCalibur Traing mannual (FACStation ver1.1. Becton Dickinson, Franklin Lakes, N.J., USA.). […]

[2] = test system: HCT116/S5: HCT116 transfected with the human microsomal dipeptidase cDNA; experiment: Growth inhibition (cytotoxicity, WST-8) of HCT116/S5 cells expressing a high level of microsomal dipeptidase; assay type: cell-based; details: for Growth inhibition compared among HCT116, HCT116/S5 and granulocyte progenitor cells: HCT116/S5 (high microsomal dipeptidase) versus HCT116 and granulocyte progenitor cells (very little activity); for IC50: Homo sapiens, HCT-116, drug exposure time, read-out: Cytotoxicity (IC50 in nM) HCT116/S5
Description: as §1
Transfection of the DNA was carried out by using TransIT-LT2 (PanVera, Madison, USA, Calatog No. MIR2320) according to the manufacturer's instruction. The resulting transfectants were cultivated in MaCoy5A medium (Sigma, St Louis, USA, Catalog No. M8403) supplemented with 10% (v/v) fetal bovine serum and 1 mg/ml of geneticin disulfate (Wako, Osaka, Japan, Catalog No. 535-24624). The cells that grew in the presence of 1 mg/ml G418 were collected and cultivated in MaCoy5A medium.
(§2) By using 96-multi well plates, approximately 2×10^3 cells per well of the HCT116 bearing pRC/CMV and HCT116S5 carrying pRC/CMV-MDP were cultured in 200 μl of McCoy5A medium supplemented with 10% FBS in the presence or absence of the indicated concentrations of the drugs at 37° C. under 5% CO2 in humidified air. The cells were exposed to drugs for 24 hr (taxol, camptothecins and their prodrugs) or 96 hr (DMDC and its compounds). When the drug exposure time to the cells was 24 hr, culture medium containing drugs were removed, and the cells were washed and suspended in the fresh medium without drugs and further cultured at 37° C. under 5% CO2 in humidified air for the indicated days. Then, 10 μl of WST-8 (Cell Counting Kit-8, Wako, Osaka, Japan, Catalog No.343-07623) were added to the cultures, and the cells were further incubated at 37° C. for 1 or 2 hr. Cell growth inhibition was calculated as IC50 values according to optical densities at 450 nm and at 655 nm. To examine the effects of drugs on granulocyte progenitors, the granulocyte progenitors, which were expanded on a monolayer of MS-5 for 7 days, were collected and washed with RPMI1640 medium. Approximately 5000 cells were suspended in 200 μl of RPMI medium supplemented with 10% FBS and 50 ng/ml of G-CSF in the presence or absence of drugs and cultured in the presence of drugs for 24 hr (taxol, camptothecins and their prodrugs) or 7 days (DMDC and its prodrug) at 37° C. under 5% CO2 in humidified air. When the exposure time of drugs to the cells was 24 hr, the drugs were removed at 24 hr after addition of drugs by washing the cells with the above medium, and the cells were further cultured for 6 days in the same medium without drugs. Therafter, 20 μl of WST-1 (Roche Diagnostics, Mannheim, Germany, Catalog No. 1644807) were added to the cultures, and the cells were further incubated at 37° C. for 6 hr. Cell growth inhibition was calculated as IC50 values according to optical densities at 450 nm and at 655 nm.

[3] = test system: HCT116: human colon cancer cell line; experiment: Growth inhibition (cytotoxicity, WST-8) of HCT116 cells expressing only a low level of microsomal dipeptidase; assay type: cell-based; details: Homo sapiens, HCT-116, drug exposure time, read-out: Cytotoxicity (IC50 in nM) HCT116
Description: The activation of the compounds is mediated by microsomal dipeptidase. The inhibitory activities of the compounds is determined against growth of the cells expressing a low level of microsomal dipeptidase, those expressing a high level of microsomal dipeptidase, and granulocyte progenitors that are expanded ex vivo. […] A stable transfectant, HCT116/S5, into which the human microsomal dipeptidase cDNA (herafter called MDP) connected to the CMV promoter was transfected, is used as the cells expressing a high level of microsomal dipeptidase. […] HCT116, HCT116/S5, and granulocyte porogenitors are cultured in the absence and presence of the drugs. […] The IC50 values are determined and compared among HCT116, HCT116/S5, and granulocyte porogenitors.
Transfection of the DNA was carried out by using TransIT-LT2 (PanVera, Madison, USA, Calatog No. MIR2320) according to the manufacturer's instruction. […] The cells that grew in the presence of 1 mg/ml G418 were collected and cultivated in MaCoy5A medium.
as §2, with “Then, 10 μl of WST-8 (Cell Counting Kit-8, Wako, Osaka, Japan, Catalog No.343-07623) were added to the cultures, and the cells were further incubated at 37° C. for 1 or 2 hr. Cell growth inhibition was calculated as IC50 values according to optical densities at 450 nm and at 655 nm.” left out, “drugs.” for “drugs. Therafter, 20 μl of WST-1 (Roche Diagnostics, Mannheim, Germany, Catalog No. 1644807) were added to the cultures, and the cells were further incubated at 37° C. for 6 hr. Cell growth inhibition was calculated as IC50 values according to optical densities at 450 nm and at 655 nm.”

[4] = 24 hr, then drug removed and cells cultured further

| Structure (SMILES) | IC50 at 24 h [1] | Growth inhibition compared among HCT116, HCT116/S5 and granulocyte progenitor cells [2] | IC50 [2, 4] | IC50 [3, 4] | IC50 at 168 h ([1]; 168 hr (7 days)) | IC50 ([2]; 96 hr) | IC50 ([3]; 96 hr) |
| --- | --- | --- | --- | --- | --- | --- | --- |
| CC[C@@]1(O)C(=O)OCc2c1cc1n(c2=O)Cc2cc3ccccc3nc2-1 [Camptothecin, 4(S)-ethyl-4-hydroxy-1H-pyrano[3′,4′:6,7]indolizino[1,2-b]quinoline-3,14(4H,12H)-dione, reference compound] | 6.1 nM | not significantly different | 5.6 nM | 19 nM |  |  |  |
| C=C1[C@H](n2ccc(N)nc2=O)O[C@H](CO)[C@H]1O [DMDC, 2′-deoxy-2′-methylidenecytidine, reference compound] |  | not significantly different |  |  | 0.07 nM | 0.3 nM | 0.2 nM |
| CC(=O)O[C@H]1C(=O)[C@@]2(C)[C@H]([C@H](OC(=O)c3ccccc3)[C@]3(O)C[C@H](OC(=O)[C@H](O)[C@@H](NC(=O)c4ccccc4)c4ccccc4)C(C)=C1C3(C)C)[C@]1(OC(C)=O)CO[C@@H]1C[C@@H]2O (relative stereo) [Paclitaxel, [2aR-[2aα,4β,4aβ,6β,9α(αR*,βS*),11α,12α,12aα,12bα]]-β-(benzoylamino)-α-hydroxybenzenepropanoic acid 6,12b-bis(acetyloxy)-12-(benzoyloxy)-2a,3,4,4a,5,6,9,10,11,12,12a,12b-dodecahydro-4,11-dihydroxy-4a,8,13,13-tetramethyl-5-oxo-7,11-methano-1H-cyclodeca[3,4]benz[1,2-b]oxet-9-yl ester, reference compound] | 16 nM | not significantly different |  | 2.5 nM |  |  |  |
